SMILES strings stand for the structures.

In patent US20160279246A1, “METHODS AND SYSTEMS FOR CONTINUOUS HETEROGENEOUS CRYSTALLIZATION” (Massachusetts Institute of Technology, priority 2015, published 2016) one finds Solubility in ethanol data, which are given here for two compounds.

This data set in a line: Solubility of API and excipient in the solvent ethanol. It is filed as physicochemical. The source says: The API-Excipient-Solvent selection was important to this process. The specific API chosen was soluble in the solvent; however the excipient was insoluble in the same solvent. The API-Excipient combination was such that the API molecules easily nucleate on the surface of the excipient. Use of low supersaturation stopped primary nucleation, and ensures the presence of heterogeneous nuclei alone. These nuclei grew further during their stay inside the column. Tuning of residence time and supersaturation helps in tuning of the loading (weight of API per unit weight of product) of excipient particles with drug.
An exemplary embodiment was implemented with Acetaminophen-D-mannitol-Ethanol as a sample API-Excipient-Solvent system. Acetaminophen was soluble in ethanol; however D-mannitol was insoluble in ethanol.

For the compound `CC(=O)Nc1ccc(O)cc1` [Acetaminophen], the Solubility in ethanol entry is “soluble”.

For the compound `OC[C@@H](O)[C@@H](O)[C@H](O)[C@H](O)CO` [D-mannitol], the Solubility in ethanol result is reported as “insoluble”.
